# Experimental data published in patent US20050267114A1, “Triazaspiro[5.5]undecane derivatives and drugs comprising the same as the active ingredient” (priority 2002, published 2005).
# Where a name gives a salt, the structure may show the parent alone.
# Biological target: T1, human CCR5 (Homo sapiens, UniProt P51681)
# T1 construct: expressed in transfected cells; host or cells: CHO-dhfr(-) cells stably transfected with plasmid pEF-BOS-bsr/hCCR5
# Test: Inhibition test on the binding of RANTES to CCR5 (RANTES-induced transient increase of Ca ion)
# Type: cell-based
# Conditions: human RANTES 10 nM; CCR5/CHO cell; Ca2+ transient increase
# Procedure: (1) Isolation of Human CCR5 Gene
# Human placental cDNA was prepared using Marathon cDNA amplification kit (Clontech). PCR primers hCCR5Xbal-F1:
# Using the human placental cDNA as the template and using Ex Taq (Takara), PCR reaction (2 minutes at 95° C.→(30 seconds at 95° C., 45 seconds at 60° C., 1 minute at 72° C.)×35 times) was carried out. The thus amplified PCR product was subjected to a 1% agarose gel electrophoresis, purified using QIAquick Gel Extraction Kit (QUIAGEN) and then digested with a restriction enzyme XbaI. The digested fragments were ligated to an expression vector pEF-BOS-bsr using DNA Ligation Kit Ver. 2 (Takara) and transformed into Escherichia coli DH5a. […]
# The thus established human CCR5 stably over-expressing CHO cell (CCR5/CHO cell) was suspended in Ham's F-12 medium containing FBS (10%) and dispensed in […] portions into a 96 well plate. […] Transient increase in the intracellular Ca^2+ concentration induced by the human RANTES was measured using a Ca^2+ detector for 96 well use (Hamamatsu Photonics), and inhibition ratio (%) of the test compound was calculated by the following calculation formula. Inhibition ratio=(Ec−Ea)/Ec×100 • Ec: measured value of Ca^2+ transient increase by RANTES • Ea: measured value of Ca^2+ transient increase by RANTES when a test compound was added.
# T1 sequence (P51681 whole entry): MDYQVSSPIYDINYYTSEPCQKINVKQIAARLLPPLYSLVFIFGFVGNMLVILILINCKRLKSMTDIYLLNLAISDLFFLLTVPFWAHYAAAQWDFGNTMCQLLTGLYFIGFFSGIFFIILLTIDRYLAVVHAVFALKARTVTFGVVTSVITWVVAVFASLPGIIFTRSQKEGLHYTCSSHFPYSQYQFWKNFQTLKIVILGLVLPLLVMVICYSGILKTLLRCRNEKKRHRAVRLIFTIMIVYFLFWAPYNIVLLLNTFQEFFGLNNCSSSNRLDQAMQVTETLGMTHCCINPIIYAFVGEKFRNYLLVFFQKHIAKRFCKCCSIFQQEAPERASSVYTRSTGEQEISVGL
structure (smiles),measurement,value
"CCCCN1C(=O)[C@@H]([C@H](O)C(CC)CC)NC(=O)C12CCN(Cc1ccc(Cc3ccc(C(=O)NC)cc3Cl)cc1)CC2 [Example 3(179), (3R)-1-butyl-2,5-dioxo-3-((1R)-1-hydroxy-2-ethylbutyl)-9-(4-(4-methylaminocarbonyl-2-chlorophenylmethyl)phenylmethyl)-1,4,9-triazaspiro[5.5]undecane hydrochloride]",IC50,10 nM
